The results in this text go back to ChEMBL document CHEMBL5550102, “Caged xanthone derivatives to promote mitochondria-mediated apoptosis in breast cancer cells” (Bioorg Med Chem, 2024).

Holding throughout (assay type): functional, cell-based
For experiment [1], the system named is MDA-MB-231. In words: Cytotoxicity against human MDA-MB-231 cells incubated for 72 hrs by CCK8 assay. As to conditions: MDA-MB-231, 72 h.
Experiment [2] deals with A549. In words: Cytotoxicity against human A549 cells incubated for 72 hrs by CCK8 assay. To be noted: A549, 72 h. (Formazan colour is commonly taken as a measure of viable cells.)
Experiment [3] has as its system HepG2. In words: Cytotoxicity against human HepG2 cells incubated for 72 hrs by CCK8 assay. As to conditions: HepG2, 72 h.

One may read the IC50 as the midpoint of a concentration-inhibition curve. On to `COC(=O)C[C@]12C=C3C(=O)c4ccccc4O[C@@]3(CC1)[C@H]1C(=O)N(c3ccc(Br)cc3)C(=O)[C@H]12`, for which the IC50 in experiment [1] is 24.4 µM; in experiment [2], 24.3 µM; in experiment [3], 25.6 µM.
Take `COC(=O)C[C@]12C=C3C(=O)c4ccccc4O[C@@]3(CC1)[C@H]1C(=O)N(c3ccc(OC)cc3)C(=O)[C@H]12`: the IC50 in experiment [1], in experiment [2] and in experiment [3] was greater than 50 µM each time.
Consider `COC(=O)C[C@]12C=C3C(=O)c4ccccc4O[C@@]3(CC1)[C@H]1C(=O)N(Cc3ccccc3)C(=O)[C@H]12`, for which the IC50 in experiment [1], in experiment [2] and in experiment [3] was greater than 50 µM throughout.
For the compound `CC(=O)O[C@H]1C(=O)[C@@]2(C)[C@H]([C@H](OC(=O)c3ccccc3)[C@]3(O)C[C@H](OC(=O)[C@H](O)[C@@H](NC(=O)c4ccccc4)c4ccccc4)C(C)=C1C3(C)C)[C@]1(OC(C)=O)CO[C@@H]1C[C@@H]2O` [PACLITAXEL], the IC50 was 0.11 µM in experiment [1], 0.4 µM in experiment [2] and 0.06 µM in experiment [3].
`COC(=O)C[C@]12C=C3C(=O)c4cc(F)ccc4O[C@@]3(CC1)[C@H]1C(=O)N(c3ccc(Br)cc3)C(=O)[C@H]12`: the IC50 in experiment [1], in experiment [2] and in experiment [3] was greater than 50 µM throughout.
As to `COC(=O)C[C@]12C=C3C(=O)c4ccccc4O[C@@]3(CC1)[C@H]1C(=O)N(C(C)(C)C)C(=O)[C@H]12`, the IC50 in experiment [1], in experiment [2] and in experiment [3] was greater than 50 µM in each case.
For `COC(=O)C[C@]12C=C3C(=O)c4cccc(C)c4O[C@@]3(CC1)[C@H]1C(=O)N(c3ccc(C(F)(F)F)cc3)C(=O)[C@H]12`, the IC50 in experiment [1] worked out at 27 µM; in experiment [2], 40.1 µM; in experiment [3], 32.9 µM.
